Measurements published in patent publication US8722701B2, “1,2,3,4,5 6,7,8-octohydro-9-phenylacetamidoacridine, the preparation method and medical use thereof” (priority 2010, dated 2014).
Where a name gives a salt, the structure may show the parent alone. Marks after values point to notes of the source that are not given here.

Legend:
[1] = tested on: aconitine-induced arrhythmia in rats; experiment: Aconitine-induced arrhythmia in rats; format: in vivo, Wistar rats; conditions: for Occurrence time CA / Occurrence time VF / Occurrence time VP / Occurrence time VT: 50 min before aconitine 20 μg/kg i.v., n=10, x±s; for Antagonistic action against the arrhythmia induced by aconitine in rats: 100 and 200 mg/kg intragastric, result in words
Procedure: (§1) Models of experimental arrhythmia induced by aconitine and ouabain in rats and guinea pigs were constructed. The inventive compound and the hydrochloride thereof were administrated with dosages of 100 and 200 mg/kg, respectively. The positive medicament group was administrated with 10 mg/kg of Propranolol, and the control group was administrated with 0.5% carboxymethylcellulose sodium. Each group was administrated by gastric perfusion once. The occurrence times of ventricular premature contraction (VP), ventricular tachycardia (VT), ventricular fibrillation (VF) and cardiac arrest (CA) after administration of aconitine in rats were recorded; and the dosages of ouabain were also observed when VP, VT, VF and CA appeared.
Sixty Wistar rats were divided into 6 groups randomly: a control group, a positive medicament (Propranolol) group, high- and low-dosage groups (200 and 100 mg/kg) of the inventive compound and the hydrochloride thereof, respectively, 10 animals per group. Fifty minutes after intragastric administration, the animals of each groups were anaesthetized by injecting 10% chloral hydrate intraperitoneally and fixed in a supine position. A type II lead normal electrocardiogram was then recorded. After that, 20 μg/kg of aconitine was injected via sublingual vein, and the change of the electrocardiogram was observed. The occurrence times of ventricular premature contraction (VP), ventricular tachycardia (VT), ventricular fibrillation (VF) and cardiac arrest (CA) after administration of aconitine in the rats were recorded.
(§2) The experimental data were analyzed with the statistic software SPSS 10.0, and represented as x±s. The comparison among groups was analyzed by the intergroup comparison difference t test.

[2] = tested on: ouabain-induced arrhythmia in guinea pigs; experiment: Ouabain-induced arrhythmia in guinea pigs; format: in vivo, EWG/B guinea pigs; conditions: for Dosages of ouabain CA / Dosages of ouabain VF / Dosages of ouabain VP / Dosages of ouabain VT: ouabain infused 5 μg/min, n=6, x±s; for Antagonistic action against the arrhythmia induced by ouabain in guinea pigs: 100 and 200 mg/kg intragastric, result in words
Procedure: as §1
Thirty-six guinea pigs were divided into 6 groups randomly: a control group, a positive medicament (Propranolol) group, high- and low-dosage groups (200 and 100 mg/kg) of the inventive compound and the hydrochloride thereof, respectively, 6 animals per group. Fifty minutes after intragastric administration, the animals of each groups were anaesthetized by injecting 10% chloral hydrate intraperitoneally and fixed in a supine position. After the external jugular vein was separated, intubation was performed and a constant-speed micro-infusion apparatus was installed. Then a type II lead normal electrocardiogram was recorded. After that, ouabain was infused via the external jugular vein at a constant rate of 5 μg/min, and the change of the electrocardiogram was observed. The dosages of ouabain when VP, VT, VF and CA occurred after administration of ouabain in the guinea pigs were recorded.
as §2

[3] = tested on: cholinesterase; conditions: Chinese Patent No. ZL 03104541.3; result in words; cited from earlier work
[4] = tested on: arrhythmia induced by coronary artery ligation in rats; experiment: Arrhythmia induced by coronary artery ligation in rats; format: in vivo, Wistar rats; conditions: for Incidence rate of arrhythmia CA / Incidence rate of arrhythmia VF / Incidence rate of arrhythmia VT / Occurrence times CA / Occurrence times VF / Occurrence times VP / Occurrence times VT: rats, coronary artery ligation; for Occurrence times CA / Occurrence times VF / Occurrence times VP / Occurrence times VT: x±s
Procedure: Models of experimental arrhythmia induced by coronary artery ligation in rats were constructed. The inventive compound was administrated in a dose of 50, 100, 200 mg/kg, respectively. […] Each group wa administrated by gastric perfusion once. The occurrence times and the incidence rates of ventricular premature contraction (VP), ventricular tachycardia (VT), ventricular fibrillation […] and cardiac arrest (CA) after coronary artery ligation in rats were recorded.
The experimental data were analyzed with the statistic software SPSS 10.0, and represented as x±s. The intergroup comparison was analyzed by the intergroup difference comparison t test. The incidence rates were compared by χ^2 test.

[5] = background statement; result in words; cited from earlier work
[6] = 100 mg/kg intragastric, 100 mg/kg
[7] = 200 mg/kg intragastric, 200 mg/kg
[8] = 50 mg/kg by gastric perfusion once
[9] = 100 mg/kg by gastric perfusion once
[10] = 200 mg/kg by gastric perfusion once

SMILES: O=C(Cc1ccccc1)Nc1c2c(nc3c1CCCC3)CCCC2 [Hydrochloride of the inventive compound, hydrochloride of 1,2,3,4,5,6,7,8-octohydro-9-phenylacetamidoacridine]
- Occurrence time CA [1, 6]: 907.2 ± 250.6 s
- Occurrence time VF [1, 6]: 640.4 ± 217.3 s
- Occurrence time VP [1, 6]: 17.3 ± 7.8 s
- Occurrence time VT [1, 6]: 84.4 ± 19.0 s
- Occurrence time CA [1, 7]: 911.2 ± 186.4 s
- Occurrence time VF [1, 7]: 660.2 ± 204.7 s
- Occurrence time VP [1, 7]: 22.6 ± 6.1 s
- Occurrence time VT [1, 7]: 98.6 ± 21.3 s
- Antagonistic action against the arrhythmia induced by aconitine in rats [1]: significant antagonistic actions
- Dosages of ouabain CA [2, 6]: 280.3 ± 41.5 µg/kg
- Dosages of ouabain VF [2, 6]: 235.3 ± 36.3 µg/kg
- Dosages of ouabain VP [2, 6]: 171.8 ± 38.4 µg/kg
- Dosages of ouabain VT [2, 6]: 189.7 ± 30.3 µg/kg
- Dosages of ouabain CA [2, 7]: 370.4 ± 66.7 µg/kg
- Dosages of ouabain VF [2, 7]: 298.7 ± 49.1 µg/kg
- Dosages of ouabain VP [2, 7]: 189.5 ± 25.4 µg/kg
- Dosages of ouabain VT [2, 7]: 230.4 ± 35.3 µg/kg
- Antagonistic action against the arrhythmia induced by ouabain in guinea pigs [2]: significant antagonistic actions

SMILES: Nc1c2c(nc3c1CCCC3)CCCC2 [9-amino-1,2,3,4,5,6,7,8-octohydroacridine]
- Inhibition activity for cholinesterase [3]: proved to have an inhibition activity for cholinesterase

SMILES: O=C(Cc1ccccc1)Nc1c2c(nc3c1CCCC3)CCCC2 (as salt: hydrochloride) [Hydrochloride of the inventive compound, hydrochloride of 1,2,3,4,5,6,7,8-octohydro-9-phenylacetamidoacridine]
- melting point: 231 to 234 °C

SMILES: CC(C)NCC(O)COc1cccc2ccccc12 (stereo not shown) [Propranolol, reference compound]
- Occurrence time CA ([1]; 10 mg/kg intragastric): 913.7 ± 208.6 s
- Occurrence time VF ([1]; 10 mg/kg intragastric): 705.6 ± 233.2 s
- Occurrence time VP ([1]; 10 mg/kg intragastric): 23.6 ± 6.9 s
- Occurrence time VT ([1]; 10 mg/kg intragastric): 101.6 ± 32.5 s
- Dosages of ouabain CA ([2]; 10 mg/kg intragastric): 390.6 ± 64.4 µg/kg
- Dosages of ouabain VF ([2]; 10 mg/kg intragastric): 323.2 ± 71.4 µg/kg
- Dosages of ouabain VP ([2]; 10 mg/kg intragastric): 201.3 ± 55.6 µg/kg
- Dosages of ouabain VT ([2]; 10 mg/kg intragastric): 240.7 ± 48.78 µg/kg

SMILES: O=C(Cc1ccccc1)Nc1c2c(nc3c1CCCC3)CCCC2 (hydrate or solvate) [Inventive compound, 1,2,3,4,5,6,7,8-octohydro-9-phenylacetamidoacridine]
- melting point: 234 to 236 °C

SMILES: O=C(Cc1ccccc1)Nc1c2c(nc3c1CCCC3)CCCC2 [Inventive compound, 1,2,3,4,5,6,7,8-octohydro-9-phenylacetamidoacridine]
- Occurrence time CA [1, 6]: 910.1 ± 276.5 s
- Occurrence time VF [1, 6]: 621.6 ± 203.7 s
- Occurrence time VP [1, 6]: 16.9 ± 8.3 s
- Occurrence time VT [1, 6]: 82.7 ± 21.0 s
- Occurrence time CA [1, 7]: 905.7 ± 170.3 s
- Occurrence time VF [1, 7]: 650.4 ± 193.3 s
- Occurrence time VP [1, 7]: 20.7 ± 6.9 s
- Occurrence time VT [1, 7]: 95.6 ± 20.6 s
- Antagonistic action against the arrhythmia induced by aconitine in rats [1]: significant antagonistic actions
- Dosages of ouabain CA [2, 6]: 283.0 ± 46.5 µg/kg
- Dosages of ouabain VF [2, 6]: 230.5 ± 46.4 µg/kg
- Dosages of ouabain VP [2, 6]: 174.9 ± 41.7 µg/kg
- Dosages of ouabain VT [2, 6]: 184.1 ± 28.8 µg/kg
- Dosages of ouabain CA [2, 7]: 371.3 ± 69.6 µg/kg
- Dosages of ouabain VF [2, 7]: 294.5 ± 51.9 µg/kg
- Dosages of ouabain VP [2, 7]: 185.5 ± 24.8 µg/kg
- Dosages of ouabain VT [2, 7]: 228.3 ± 36.6 µg/kg
- Antagonistic action against the arrhythmia induced by ouabain in guinea pigs [2]: significant antagonistic actions
- Antagonistic action against the experimental arrhythmia induced by coronary artery ligation in rats ([4]; rats, 50, 100, 200 mg/kg by gastric perfusion, result in words): significant antagonistic action
- Incidence rate of arrhythmia CA [4, 8]: 21.4%
- Incidence rate of arrhythmia VF [4, 8]: 35.7%
- Incidence rate of arrhythmia VT [4, 8]: 42.8%
- Occurrence times CA [4, 8]: 1141.8 ± 161.9 s
- Occurrence times VF [4, 8]: 930.5 ± 379.4 s
- Occurrence times VP [4, 8]: 82.3 ± 79.0 s
- Occurrence times VT [4, 8]: 773.8 ± 344.3 s
- Incidence rate of arrhythmia CA [4, 9]: 14.3* %
- Incidence rate of arrhythmia VF [4, 9]: 14.3* %
- Incidence rate of arrhythmia VT [4, 9]: 28.6* %
- Occurrence times CA [4, 9]: 1163.4 ± 124.6 s
- Occurrence times VF [4, 9]: 1148.3 ± 193.6 s
- Occurrence times VP [4, 9]: 90.1 ± 39.7 s
- Occurrence times VT [4, 9]: 920.5 ± 270.6 s
- Incidence rate of arrhythmia CA [4, 10]: 12.5* %
- Incidence rate of arrhythmia VF [4, 10]: 12.5* %
- Incidence rate of arrhythmia VT [4, 10]: 12.5** %
- Occurrence times CA [4, 10]: 1176.4 ± 729.2 s
- Occurrence times VF [4, 10]: 1115.0 ± 138.8 s
- Occurrence times VP [4, 10]: 107.3 ± 67.9 s
- Occurrence times VT [4, 10]: 1043.2 ± 247.1 s

SMILES: Nc1c2c(nc3ccccc13)CCCC2 [Tacrine, 9-amino-1,2,3,4-tetrahydroacridine]
- Hepatotoxicity [5]: has a hepatotoxicity
